The text below walks through data of PubChem BioAssay AID280 (DTP/NCI, 2004).

Values joined by “and” are separate entries in the source; they are usually repeats but may differ in a detail not shown here. Equal entries are not always repeated. Inconclusive results and toxic doses are left out.

The assay relates to nude mice, LOX melanoma ip, survival T/C. In words: NCI In Vivo Anticancer Drug Screen. Data for tumor model Human Amelanotic Melanoma (LOX) (intraperitoneal) in NU/NU BALB/C (nude) mice. As to conditions: endpoint: median survival time, higher = longer survival. The method, then:
The antitumor activity of compounds was measured in mice bearing transplantable tumors. Survival or tumor size were measured and the results are expressed as the measurement made in the treated group (T) divided by the measurement made in the vehicle treated control group (C). The tumor model used in this assay is Human Amelanotic Melanoma (LOX) (intraperitoneal) in NU/NU BALB/C (nude) mice

The mark [1] stands for this setting: dose: 25.0 mg/kg/injection, schedule: Q04DX003 (ip), vehicle: Klucel (hydroxypropylcellulose) (HPC).
The mark [2] stands for this setting: dose: 50.0 mg/kg/injection, schedule: Q04DX003 (ip), vehicle: Klucel (hydroxypropylcellulose) (HPC).
[3] abbreviates: dose: 200.0 mg/kg/injection, schedule: Q04DX003 (ip), vehicle: Klucel (hydroxypropylcellulose) (HPC).
[4] abbreviates: dose: 12.5 mg/kg/injection, schedule: Q04DX003 (ip), vehicle: Klucel (hydroxypropylcellulose) (HPC).

In the case of `CN1CCN(CN2C(=O)C3C4C=CC(C3C2=O)C2C3C(=O)N(CN5CCN(C)CC5)C(=O)C3C42)CC1` (stereo unspecified), the T/C by setting is: (dose: 12.5 mg/kg/injection, schedule: Q04DX003 (ip), vehicle: water) 104 % of control; (dose: 25.0 mg/kg/injection, schedule: Q04DX003 (ip), vehicle: water) 109 % of control; (dose: 50.0 mg/kg/injection, schedule: Q04DX003 (ip), vehicle: water) 110 % of control; (dose: 100.0 mg/kg/injection, schedule: Q04DX003 (ip), vehicle: water) 106 % of control.

For `N[C@@H](Cc1c[nH]c2ccccc12)C(=O)Nc1nncs1`, the T/C by setting is: (dose: 75.0 mg/kg/injection, schedule: Q04DX003 (ip), vehicle: suspension in saline) 107 % of control; (dose: 150.0 mg/kg/injection, schedule: Q04DX003 (ip), vehicle: suspension in saline) 94 % of control; (dose: 300.0 mg/kg/injection, schedule: Q04DX003 (ip), vehicle: suspension in saline) 94 % of control; (dose: 600.0 mg/kg/injection, schedule: Q04DX003 (ip), vehicle: suspension in saline) 119 % of control.

Take `CCOC(=O)C1=C(Nc2ccc(OC)cc2)C(N)=NC1=N`: the T/C is, setting by setting: (dose: 50.0 mg/kg/injection, schedule: Q04DX003 (ip), vehicle: suspension in saline) 107 % of control; (dose: 100.0 mg/kg/injection, schedule: Q04DX003 (ip), vehicle: suspension in saline) 107 % of control.

Regarding `O=C(O)CCCc1ccc(N(CCCl)CCCl)cc1`, the T/C by setting is: (dose: 0.2 mg/kg/injection, schedule: Q04DX003 (ip), vehicle: Klucel (hydroxypropylcellulose) (HPC)) 90 % of control; (dose: 0.3 mg/kg/injection, schedule: Q04DX003 (ip), vehicle: Klucel (hydroxypropylcellulose) (HPC)) 95 % of control; (dose: 12.0 mg/kg/injection, schedule: Q01DX001 (ip), vehicle: Klucel (hydroxypropylcellulose) (HPC)) 117 % of control; (dose: 12.0 mg/kg/injection, schedule: Q01DX005 (ip), vehicle: Klucel (hydroxypropylcellulose) (HPC)) 213 % of control; (dose: 12.0 mg/kg/injection, schedule: Q01DX015 (ip), vehicle: Klucel (hydroxypropylcellulose) (HPC)) 173 % of control; (dose: 12.0 mg/kg/injection, schedule: Q04DX003 (ip), vehicle: Klucel (hydroxypropylcellulose) (HPC)) 116 % of control. Moreover, the T/C is 161 % of control (dose: 18.0 mg/kg/injection, schedule: Q01DX001 (ip), vehicle: Klucel (hydroxypropylcellulose) (HPC)); 190 % of control (dose: 18.0 mg/kg/injection, schedule: Q01DX005 (ip), vehicle: Klucel (hydroxypropylcellulose) (HPC)); 346 % of control (dose: 18.0 mg/kg/injection, schedule: Q01DX015 (ip), vehicle: Klucel (hydroxypropylcellulose) (HPC)); 346 % of control (dose: 27.0 mg/kg/injection, schedule: Q01DX005 (ip), vehicle: Klucel (hydroxypropylcellulose) (HPC)); 346 % of control (dose: 27.0 mg/kg/injection, schedule: Q01DX015 (ip), vehicle: Klucel (hydroxypropylcellulose) (HPC)); 210 % of control and 248 % of control and 97 % of control (dose: 27.0 mg/kg/injection, schedule: Q04DX003 (ip), vehicle: Klucel (hydroxypropylcellulose) (HPC)).

Regarding `C=CCNC(=O)c1ccccc1SC(C)=O`, the T/C runs as follows: (dose: 37.5 mg/kg/injection, schedule: Q04DX003 (ip), vehicle: saline with Tween-80) 100 % of control; (dose: 75.0 mg/kg/injection, schedule: Q04DX003 (ip), vehicle: saline with Tween-80) 95 % of control; (dose: 300.0 mg/kg/injection, schedule: Q04DX003 (ip), vehicle: saline with Tween-80) 93 % of control.

Consider `Cc1ccc(C(=O)NC2C(=O)NC(C(C)C)C(=O)N3CCCC3C(=O)N(C)CC(=O)N(C)C(C(C)C)C(=O)OC2C)c2c1Oc1c(c(C(=O)NC3C(=O)NC(C(C)C)C(=O)N4CCCC4C(=O)N(C)CC(=O)N(C)C(C(C)C)C(=O)OC3C)c3nc(-c4ccccc4)c(=O)oc3c1C)N2` (stereo unspecified), for which the T/C is, setting by setting: (dose: 0.25 mg/kg/injection, schedule: Q04DX003 (ip), vehicle: saline with Tween-80) 159 % of control; (dose: 0.5 mg/kg/injection, schedule: Q04DX003 (ip), vehicle: saline with Tween-80) 161 % of control; (dose: 1.0 mg/kg/injection, schedule: Q04DX003 (ip), vehicle: saline with Tween-80) 224 % of control; (dose: 2.0 mg/kg/injection, schedule: Q04DX003 (ip), vehicle: saline with Tween-80) 295 % of control; (dose: 4.0 mg/kg/injection, schedule: Q04DX003 (ip), vehicle: saline with Tween-80) 301 % of control.

In the case of `NC(=O)c1[nH]cnc1O`, the T/C reads like this: (dose: 50.0 mg/kg/injection, schedule: Q04DX003 (ip), vehicle: saline with Tween-80) 95 % of control and 98 % of control; (dose: 100.0 mg/kg/injection, schedule: Q04DX003 (ip), vehicle: saline with Tween-80) 116 % of control and 100 % of control; (dose: 200.0 mg/kg/injection, schedule: Q04DX003 (ip), vehicle: saline with Tween-80) 104 % of control and 111 % of control; (dose: 400.0 mg/kg/injection, schedule: Q04DX003 (ip), vehicle: saline with Tween-80) 96 % of control; (dose: 800.0 mg/kg/injection, schedule: Q04DX003 (ip), vehicle: saline with Tween-80) 88 % of control.

In the case of `Cc1nc(C(Cl)(Cl)Cl)[nH]c(=O)c1SCCO`, the T/C is, setting by setting: (dose: 75.0 mg/kg/injection, schedule: Q04DX003 (ip), vehicle: distilled water + Tween-80 + alcohol) 102 % of control; (dose: 150.0 mg/kg/injection, schedule: Q04DX003 (ip), vehicle: distilled water + Tween-80 + alcohol) 116 % of control; (dose: 300.0 mg/kg/injection, schedule: Q04DX003 (ip), vehicle: distilled water + Tween-80 + alcohol) 101 % of control; (dose: 600.0 mg/kg/injection, schedule: Q04DX003 (ip), vehicle: distilled water + Tween-80 + alcohol) 117 % of control.

For the molecule `CN(C)c1ccc2c(Nc3ccc(NS(C)(=O)=O)cc3)c3ccc(N(C)C)cc3nc2c1`, the T/C is, setting by setting: under setting [1], 101 % of control; under setting [2], 98 % of control; (dose: 100.0 mg/kg/injection, schedule: Q04DX003 (ip), vehicle: Klucel (hydroxypropylcellulose) (HPC)) 113 % of control; under setting [3], 163 % of control; (dose: 400.0 mg/kg/injection, schedule: Q04DX003 (ip), vehicle: Klucel (hydroxypropylcellulose) (HPC)) 109 % of control.

As for `O=C([O][Bi]([c]1ccccc1)[c]1ccccc1)c1ccccc1`, the T/C is 98 % of control under setting [4], 211 % of control under setting [2] and 103 % of control under setting [3].

In the case of `NC(=S)N/N=C/c1cc(=O)c2cc(Cl)ccc2o1`, the T/C is 107 % of control (dose: 75.0 mg/kg/injection, schedule: Q04DX003 (ip), vehicle: other); 101 % of control (dose: 150.0 mg/kg/injection, schedule: Q04DX003 (ip), vehicle: other); 100 % of control (dose: 300.0 mg/kg/injection, schedule: Q04DX003 (ip), vehicle: other); 105 % of control (dose: 600.0 mg/kg/injection, schedule: Q04DX003 (ip), vehicle: other); 101 % of control (dose: 1200.0 mg/kg/injection, schedule: Q04DX003 (ip), vehicle: other).

Consider `O=C1c2c(O)ccc(O)c2C(=O)c2c(NCCNCCO)ccc(NCCNCCO)c21`, for which the T/C runs as follows: (dose: 0.45 mg/kg/injection, schedule: Q04DX003 (ip), vehicle: other) 168 % of control and 167 % of control; (dose: 0.75 mg/kg/injection, schedule: Q04DX003 (ip), vehicle: other) 375 % of control and 187 % of control; (dose: 1.25 mg/kg/injection, schedule: Q04DX003 (ip), vehicle: other) 256 % of control and 265 % of control; (dose: 1.25 mg/kg/injection, schedule: Q04DX003 (ip), vehicle: water) 218 % of control; (dose: 2.0 mg/kg/injection, schedule: Q04DX003 (ip), vehicle: other) 187 % of control; (dose: 2.08 mg/kg/injection, schedule: Q04DX003 (ip), vehicle: other) 88 % of control. For the same molecule, the T/C (dose: 2.5 mg/kg/injection, schedule: Q04DX003 (ip), vehicle: water) is 120 % of control.

As for `OCC1OC(n2cnc3c2NC=NC[C@H]3O)CC1O` (stereo partly specified), the T/C is 102 % of control (dose: 2.0 mg/kg/injection, schedule: Q04DX003 (ip), vehicle: saline); 94 % of control (dose: 4.0 mg/kg/injection, schedule: Q04DX003 (ip), vehicle: saline); 96 % of control (dose: 8.0 mg/kg/injection, schedule: Q04DX003 (ip), vehicle: saline); 100 % of control (dose: 16.0 mg/kg/injection, schedule: Q04DX003 (ip), vehicle: saline).

Turning to `Cc1ccc(C2=CSC3=NCCN23)cc1Cl`, the T/C was 97 % of control under setting [4], 96 % of control under setting [1] and 101 % of control under setting [2].
